According to ChEMBL document CHEMBL1124980, “2,4-Dihydro-3H-1,2,4-triazol-3-ones as anticonvulsant agents” (J Med Chem, 1990):
Calls of active or inactive are those of the source. The rule behind the calls is not given here.

Tests used:
[1] = biological target: GABA-A receptor; anion channel; experiment: In vitro binding affinity for GABA-A receptor in rat cortical or hippocampal membranes using [3H]flunitrazepam
[2] = tested on: Gerbillinae; experiment: Tested for its effect on Hypoxia induced neuronal damage; format: functional
[3] = tested on: Gerbillinae; experiment: Tested for its effect on hippocampal neuronal damage in gerbils activity; format: functional
[4] = tested on: Mus musculus; experiment: Tested for inhibition of pentylenetetrazole induced seizures in mice; Value is 1/16 of the LD50 range; format: functional
[5] = species on record: Mus musculus; experiment: Tested for inhibition of quinoline-induced seizures in mice.; format: functional
[6] = tested on: Mus musculus; experiment: (§1) Tested for acute toxicity in mice after intraperitoneal administration; Value ranges from 200-400 mg/kg; format: functional; conditions: ip
[7] = biological target: Glutamate NMDA receptor; experiment: Inhibition of [3H]CPP binding to N-methyl-D-aspartate glutamate receptor of rat cortical or hippocampal membranes; format: cell membranes, Membrane
[8] = tested on: Mus musculus; experiment: Tested for inhibition of maximal electroshock -induced seizures in mice; Value is 1/8 of the LD50 range; format: functional
[9] = Tested for acute toxicity in mice after intraperitoneal administration; Value ranges from 400-800; format: organism-based; conditions: mouse, in vivo, ip
[10] = Tested for acute toxicity in mice after intraperitoneal administration; format: organism-based; conditions: mouse, in vivo, ip
[11] = tested on: Mus musculus; experiment: Tested for inhibition of pentylenetetrazole induced seizures in mice; Value is 1/8 of the LD50 range; format: functional
[12] = Tested for acute toxicity in mice after intraperitoneal administration; Value ranges from 400-800 mg/kg; format: organism-based; conditions: mouse, in vivo, ip
[13] = tested on: Mus musculus; experiment: Tested for inhibition of pentylenetetrazole induced seizures in mice; Value is 1/8 of the LD50; format: functional
[14] = species on record: Mus musculus; experiment: Tested for inhibition of pentylenetetrazole induced seizures in mice.; format: functional
[15] = species on record: Mus musculus; experiment: Tested for inhibition of strychnine-induced seizures in mice.; format: functional
[16] = species on record: Mus musculus; experiment: Tested for inhibition of 3-mercaptopropanoic acid induced seizures in mice.; format: functional
[17] = species on record: Mus musculus; experiment: Tested for inhibition of maximal electroshock -induced seizures in mice.; format: functional
[18] = species on record: Mus musculus; experiment: Tested for inhibition of bicuculline induced seizures in mice.; format: functional
[19] = Tested for acute toxicity in mice after intraperitoneal administration; Value ranges from 100-200 mg/kg; format: organism-based; conditions: mouse, in vivo, ip
[20] = tested on: Mus musculus; experiment: Tested for inhibition of maximal electroshock -induced seizures in mice; Value is 1/16 of the LD50; format: functional
[21] = tested on: Mus musculus; experiment: Tested for inhibition of pentylenetetrazole induced seizures in mice; Value is 1/16 of the LD50; format: functional
[22] = as §1; format: organism-based; conditions: mouse, in vivo, ip
[23] = species on record: Mus musculus; experiment: Tested for inhibition of maximal electroshock -induced seizures in mice; Value ranges from 13-25; format: functional
[24] = tested on: Mus musculus; experiment: Tested for inhibition of quinoline-induced seizures in mice; g = maximum effect, 50% at 20 mg/kg; format: functional, organism-based; parameters: dose 20 mg/kg
[25] = tested on: Mus musculus; experiment: Tested for inhibition of pentylenetetrazole induced seizures in mice; Value is 1/4 of the LD50 range; format: functional
[26] = tested on: Mus musculus; experiment: Tested for inhibition of maximal electroshock -induced seizures in mice; Value is 1/4 of the LD50 range; format: functional
[27] = species on record: Mus musculus; experiment: Tested for inhibition of pentylenetetrazole induced seizures in mice; Value ranges from 100-200; format: functional

SMILES: CCn1c(O)nnc1-c1ccc(Cl)cc1
- IC50 [1]: > 100 µM
- Damage score [2]: 2.64
- Damage score [3]: 0.33
- Activity [4]: 25 mg/kg
- ED50 [5]: ~51 mg/kg
- LD50 [6]: 400 mg/kg
- IC50 [7]: > 100 µM

SMILES: Cn1c(O)nnc1-c1ccccc1Cl
- IC50 [1]: > 100 µM
- Damage score [2]: 2.95
- Damage score [3]: 0.22
- Activity [8]: 100 mg/kg
- Activity [4]: 50 mg/kg
- ED50 [5]: ~65 mg/kg
- LD50 [9]: 800 mg/kg
- IC50 [7]: > 100 µM

SMILES: COc1nnc(-c2ccccc2)n1C
- LD50 [10]: > 800 mg/kg

SMILES: Cn1nc(-c2ccccc2F)n(C)c1=O
- Activity [11]: 100 mg/kg
- LD50 [12]: 800 mg/kg

SMILES: Cc1ccc(-c2nnc(O)n2C)cc1
- Activity [13]: >100 mg/kg
- LD50 [10]: > 800 mg/kg

SMILES: CCn1c(O)nnc1-c1ccccc1
- Activity [13]: >100 mg/kg
- LD50 [10]: > 800 mg/kg

SMILES: O=C1CN=C(c2ccccc2Cl)c2cc([N+](=O)[O-])ccc2N1 [CLONAZEPAM]
- ED50 [14]: 0.06 mg/kg
- ED50 [5]: < 8 mg/kg
- ED50 [15]: 2 mg/kg
- ED50 [16]: 0.2 mg/kg
- ED50 [17]: 50 mg/kg
- ED50 [18]: 0.07 mg/kg

SMILES: Cn1nc(-c2ccccc2)n(C)c1=S
- LD50 [19]: 200 mg/kg

SMILES: Cn1nc(-c2ccc(Cl)cc2)n(C)c1=O
- IC50 [1]: > 100 µM
- Activity [8]: 100 mg/kg
- Activity [4]: 50 mg/kg
- LD50 [12]: 800 mg/kg
- IC50 [7]: > 100 µM

SMILES: Cn1c(O)nnc1-c1ccncc1
- IC50 [1]: > 100 µM
- LD50 [10]: > 800 mg/kg
- IC50 [7]: > 100 µM

SMILES: Cn1nc(-c2ccccc2)n(C)c1=O
- Activity [11]: 100 mg/kg
- LD50 [12]: 800 mg/kg

SMILES: COc1ccc(-c2nnc(O)n2C)cc1
- LD50 [10]: > 800 mg/kg

SMILES: Cn1c(O)nnc1-c1ccc(Cl)cc1
- IC50 [1]: > 100 µM
- Activity [20]: >50 mg/kg
- Activity [21]: >50 mg/kg
- LD50 [10]: > 800 mg/kg
- IC50 [7]: > 100 µM

SMILES: CCC1(c2ccccc2)C(=O)NC(=O)NC1=O [PHENOBARBITAL]
- ED50 [14]: 24 mg/kg
- ED50 [5]: 52 mg/kg
- ED50 [15]: 52 mg/kg
- ED50 [16]: 30 mg/kg
- ED50 [17]: 20 mg/kg
- ED50 [18]: 9 mg/kg

SMILES: CCCCOc1cc(-c2nn(C)c(=O)n2C)ccc1OC
- IC50 [1]: 33.2 µM
- Activity [11]: 100 mg/kg
- LD50 [12]: 800 mg/kg
- IC50 [7]: > 100 µM

SMILES: Cn1c(O)nnc1-c1ccccc1F
- Activity [4]: >50 mg/kg
- LD50 [10]: > 800 mg/kg

SMILES: Cn1c(O)nnc1-c1cccs1
- IC50 [1]: > 100 µM
- LD50 [22]: 400 mg/kg
- IC50 [7]: > 100 µM

SMILES: Cn1nc(-c2ccccc2)nc1O
- Activity [11]: 100 mg/kg
- LD50 [9]: 800 mg/kg

SMILES: NC(=O)N1c2ccccc2C=Cc2ccccc21 [CARBAMAZEPINE]
- ED50 [14]: > 200 mg/kg
- ED50 [23]: 25 mg/kg
- ED50 [5]: 25 mg/kg
- ED50 [15]: 61 mg/kg
- ED50 [16]: 86 mg/kg

SMILES: CCn1nc(-c2ccccc2)n(C)c1=O
- Activity [11]: 100 mg/kg
- LD50 [12]: 800 mg/kg

SMILES: CN[C@H](CC(=O)O)C(=O)O [N-METHYL-D-ASPARTIC ACID (NMDA)]
- IC50 [7]: 6 µM

SMILES: O=C1NC(=O)C(c2ccccc2)(c2ccccc2)N1 [PHENYTOIN]
- ED50 [14]: > 32 mg/kg
- ED50 [24]: Active
- ED50 [15]: > 200 mg/kg
- ED50 [16]: 89 mg/kg
- ED50 [17]: 26 mg/kg
- ED50 [18]: > 200 mg/kg

SMILES: CCn1c(-c2ccccc2)nn(C)c1=O
- Activity [8]: 100 mg/kg
- Activity [25]: 200 mg/kg
- LD50 [12]: 800 mg/kg

SMILES: CCn1nc(-c2ccc(Cl)cc2)n(CC)c1=O
- Activity [8]: 50 mg/kg
- Activity [11]: 50 mg/kg
- LD50 [22]: 400 mg/kg

SMILES: Cn1nc(-c2ccc(F)cc2)n(C)c1=O
- Activity [26]: 200 mg/kg
- Activity [25]: 200 mg/kg
- LD50 [12]: 800 mg/kg

SMILES: Cl.c1ccc(C2(N3CCCCC3)CCCCC2)cc1 [PHENCYCLIDINE HYDROCHLORIDE]
- Damage score [2]: <1.14
- Damage score [3]: 1.06

SMILES: Cn1c(O)nnc1-c1ccc(Cl)c(Cl)c1
- IC50 [1]: > 100 µM
- Activity [26]: 100 mg/kg
- Activity [25]: 100 mg/kg
- LD50 [22]: 400 mg/kg
- IC50 [7]: > 100 µM

SMILES: CCn1nc(-c2cccs2)n(C)c1=O
- LD50 [12]: 800 mg/kg

SMILES: Cn1c(O)nnc1-c1ccc(F)cc1
- IC50 [1]: > 100 µM
- Activity [20]: >50 mg/kg
- Activity [21]: >50 mg/kg
- LD50 [10]: > 800 mg/kg
- IC50 [7]: > 100 µM

SMILES: Cc1ccc(-c2nn(C)c(=O)n2C)cc1
- LD50 [12]: 800 mg/kg

SMILES: CCCn1nc(-c2ccc(Cl)cc2)n(CC)c1=O
- LD50 [12]: 800 mg/kg

SMILES: CCCC(CCC)C(=O)O [VALPROIC ACID]
- ED50 [27]: 200 mg/kg
- ED50 [5]: > 256 mg/kg
- ED50 [15]: > 200 mg/kg
- ED50 [17]: > 200 mg/kg
- ED50 [18]: 28 mg/kg

SMILES: CCn1c(O)nnc1-c1cccc(C(F)(F)F)c1
- Activity [11]: 50 mg/kg
- LD50 [22]: 400 mg/kg

SMILES: CCCCOc1cc(-c2nnc(O)n2C)ccc1OC
- LD50 [19]: 200 mg/kg

SMILES: Cn1c(O)nnc1-c1ccccc1
- IC50 [1]: > 100 µM
- Activity [8]: >100 mg/kg
- Activity [4]: >50 mg/kg
- LD50 [10]: > 800 mg/kg
- IC50 [7]: > 100 µM

SMILES: Cn1nc(-c2ccc(Cl)c(Cl)c2)n(C)c1=O
- Activity [14]: 50 mg/kg
- LD50 [19]: 200 mg/kg
- Activity [17]: 50 mg/kg

SMILES: CCn1c(-c2cccc(C(F)(F)F)c2)nn(C)c1=O
- IC50 [1]: > 100 µM
- Activity [8]: 100 mg/kg
- Activity [4]: 50 mg/kg
- LD50 [12]: 800 mg/kg
- IC50 [7]: > 100 µM

SMILES: Cn1nc(-c2cccs2)n(C)c1=O
- LD50 [12]: 800 mg/kg

SMILES: COc1ccc(-c2nn(C)c(=O)n2C)cc1
- LD50 [12]: 800 mg/kg

SMILES: Oc1n[nH]c(-c2ccccc2)n1
- LD50 [10]: > 800 mg/kg

SMILES: Cn1nc(-c2ccccc2Cl)n(C)c1=O
- Activity [26]: 200 mg/kg
- Activity [11]: 50 mg/kg
- LD50 [12]: 800 mg/kg

SMILES: CCn1c(-c2ccc(Cl)cc2)nn(C)c1=O
- IC50 [1]: > 100 µM
- Damage score [2]: 0.97
- Damage score [3]: 0.33
- Activity [8]: 50 mg/kg
- ED50 [14]: 17 mg/kg
- Activity [4]: 20 mg/kg
- ED50 [5]: 26 mg/kg
- ED50 [15]: ~101 mg/kg
- LD50 [22]: 400 mg/kg
- IC50 [7]: > 100 µM
- ED50 [16]: 31 mg/kg
- ED50 [17]: 48 mg/kg
- ED50 [18]: 15 mg/kg

SMILES: CCn1nc(-c2ccc(Cl)cc2)n(C)c1=O
- Activity [4]: 50 mg/kg
- LD50 [12]: 800 mg/kg
